Laboratory results published in patent US11591323B2, “Muscarinic agonists as non-steroidal and non-opioid analgesics and methods of use thereof” (Barry University, priority 2019, dated 2023).
Read-outs that look alike come from different tables or passages of the source. Blank lines part the entries; values can stand above or below the compound they belong to.

Key:
Set-up in all cases: host or cells: CHO cells, stably transfected
M4 muscarinic receptor [1] = target: T1, M4 muscarinic receptor (Homo sapiens, UniProt P08173); assay: inhibition of forskolin-stimulated cAMP, M4 CHO cells (M4Gi); assay type: cell-based; conditions: for Emax: CHO; for RAi: relative to carbachol
T1 sequence (P08173 1-479): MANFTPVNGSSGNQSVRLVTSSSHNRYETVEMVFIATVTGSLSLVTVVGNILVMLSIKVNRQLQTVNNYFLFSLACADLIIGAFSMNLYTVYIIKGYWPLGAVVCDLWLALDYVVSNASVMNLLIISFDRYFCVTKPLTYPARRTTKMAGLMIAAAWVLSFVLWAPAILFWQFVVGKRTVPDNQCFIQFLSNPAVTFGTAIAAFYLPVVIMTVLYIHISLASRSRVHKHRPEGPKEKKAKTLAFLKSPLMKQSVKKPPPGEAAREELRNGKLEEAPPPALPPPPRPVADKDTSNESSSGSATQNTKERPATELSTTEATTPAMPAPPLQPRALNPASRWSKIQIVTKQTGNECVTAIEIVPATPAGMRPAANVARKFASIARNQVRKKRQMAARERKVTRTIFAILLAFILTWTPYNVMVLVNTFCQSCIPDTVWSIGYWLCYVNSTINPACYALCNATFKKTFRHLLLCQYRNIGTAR

M2 muscarinic receptor = target: T2, M2 muscarinic receptor (Homo sapiens, UniProt P08172); assay: [3H]NMS competition binding, M2 CHO membranes
T2 sequence (P08172 1-466): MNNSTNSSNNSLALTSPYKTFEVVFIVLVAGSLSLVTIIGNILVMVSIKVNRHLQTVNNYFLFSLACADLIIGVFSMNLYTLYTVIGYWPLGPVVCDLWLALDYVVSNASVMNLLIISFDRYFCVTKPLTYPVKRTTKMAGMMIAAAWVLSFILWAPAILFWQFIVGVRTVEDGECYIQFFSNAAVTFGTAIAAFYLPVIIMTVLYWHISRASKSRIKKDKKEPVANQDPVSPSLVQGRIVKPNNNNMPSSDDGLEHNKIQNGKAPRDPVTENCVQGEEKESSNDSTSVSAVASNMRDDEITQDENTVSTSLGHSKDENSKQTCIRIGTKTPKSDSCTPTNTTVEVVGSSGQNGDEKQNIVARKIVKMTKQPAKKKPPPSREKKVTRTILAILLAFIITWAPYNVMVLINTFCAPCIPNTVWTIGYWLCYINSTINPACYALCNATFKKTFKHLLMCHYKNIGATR

M1 muscarinic receptor = target: T3, M1 muscarinic receptor (Homo sapiens, UniProt P11229); assay: [3H]NMS competition binding, M1 CHO membranes; conditions: competition with 1 nM [3H]NMS; read-out: Inhibition constants (Ki) as negative logarithms, M1 (converted)
T3 sequence (P11229 1-460): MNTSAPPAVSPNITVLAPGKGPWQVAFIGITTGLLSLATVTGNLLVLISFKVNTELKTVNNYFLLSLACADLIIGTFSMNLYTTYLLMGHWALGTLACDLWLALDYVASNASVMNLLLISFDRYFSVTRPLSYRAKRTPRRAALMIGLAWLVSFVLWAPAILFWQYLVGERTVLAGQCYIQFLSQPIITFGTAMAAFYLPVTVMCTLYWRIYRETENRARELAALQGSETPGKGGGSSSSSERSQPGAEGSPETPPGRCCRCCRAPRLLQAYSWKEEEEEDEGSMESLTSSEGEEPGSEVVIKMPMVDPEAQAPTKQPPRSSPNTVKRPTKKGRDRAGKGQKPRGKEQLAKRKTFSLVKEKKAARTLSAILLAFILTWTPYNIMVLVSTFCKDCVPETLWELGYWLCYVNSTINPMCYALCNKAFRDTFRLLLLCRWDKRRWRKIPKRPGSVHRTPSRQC

M5 muscarinic receptor [2] = target: T4, M5 muscarinic receptor (Homo sapiens, UniProt P08912); assay: [3H]NMS competition binding, M5 CHO membranes
T4 sequence (P08912 1-532): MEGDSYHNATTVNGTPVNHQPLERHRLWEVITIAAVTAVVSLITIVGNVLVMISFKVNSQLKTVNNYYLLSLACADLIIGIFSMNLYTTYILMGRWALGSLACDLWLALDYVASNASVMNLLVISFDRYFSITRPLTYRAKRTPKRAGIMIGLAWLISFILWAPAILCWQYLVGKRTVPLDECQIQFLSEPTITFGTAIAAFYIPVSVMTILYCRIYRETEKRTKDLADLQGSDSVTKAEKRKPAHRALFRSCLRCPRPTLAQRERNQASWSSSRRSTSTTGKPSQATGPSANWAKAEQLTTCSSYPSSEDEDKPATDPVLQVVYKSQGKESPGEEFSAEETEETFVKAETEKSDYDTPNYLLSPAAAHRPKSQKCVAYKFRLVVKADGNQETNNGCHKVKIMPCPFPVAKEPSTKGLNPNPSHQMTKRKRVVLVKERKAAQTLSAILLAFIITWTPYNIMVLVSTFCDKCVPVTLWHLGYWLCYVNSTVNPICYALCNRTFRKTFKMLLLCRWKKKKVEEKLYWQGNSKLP

M4 muscarinic receptor [3] = target: T1, M4 muscarinic receptor; assay: [3H]NMS competition binding, M4 CHO membranes
M3 muscarinic receptor = M3 muscarinic receptor (Homo sapiens, UniProt P20309); assay: accumulation of IPX, M3 CHO cells (M3Gq); assay type: cell-based; conditions: for E′MAX / τ / Kd / EC50: Table 7; for τ: operational efficacy; for Kd: operational model, read-out: pKA (converted); for EC50: read-out: pEC50 (converted)
M5 muscarinic receptor [4] = target: T4, M5 muscarinic receptor; assay: accumulation of IPX, M5 CHO cells (M5Gq); assay type: cell-based; conditions: for τ: operational efficacy; for RAi: relative to carbachol; for RAi / Δlog(τ/KA): Tables 2, 3, 7; for Δlog(τ/KA): to carbachol
[5] = M4 (↓cAMP), preferential response, Table 7, operational efficacy
[6] = M4 (↓cAMP), preferential response, Tables 2, 3, 7
[7] = M4 (↓cAMP), preferential response, to carbachol, Tables 2, 3, 7
[8] = M3 (↑IPX), preferential response
[9] = M5 (↑IPX), preferential response, Table 7
[10] = M5 (↑IPX), preferential response

Sequence of M3 muscarinic receptor (P20309 whole entry): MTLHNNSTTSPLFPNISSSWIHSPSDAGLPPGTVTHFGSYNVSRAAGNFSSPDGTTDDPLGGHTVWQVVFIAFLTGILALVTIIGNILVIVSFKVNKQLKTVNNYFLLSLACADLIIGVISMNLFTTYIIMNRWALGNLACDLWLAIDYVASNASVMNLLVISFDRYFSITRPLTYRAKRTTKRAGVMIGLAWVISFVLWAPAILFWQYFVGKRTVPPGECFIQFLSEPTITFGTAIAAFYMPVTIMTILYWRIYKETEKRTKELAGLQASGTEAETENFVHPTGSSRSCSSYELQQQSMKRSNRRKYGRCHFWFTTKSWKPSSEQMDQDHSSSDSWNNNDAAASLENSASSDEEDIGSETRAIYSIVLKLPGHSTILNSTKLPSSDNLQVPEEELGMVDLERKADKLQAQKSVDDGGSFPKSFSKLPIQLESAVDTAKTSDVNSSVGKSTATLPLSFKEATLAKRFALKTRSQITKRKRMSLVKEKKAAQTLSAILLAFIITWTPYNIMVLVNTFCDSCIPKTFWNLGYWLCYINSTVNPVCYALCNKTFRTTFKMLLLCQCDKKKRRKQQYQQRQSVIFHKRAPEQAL

SMILES: C[N+]1(Cc2ccc(Cl)s2)CC=CCC1.[I-] (stereo not drawn) [Compound 7D, 1-[(5-chlorothiophen-2-yl)methyl]-1-methyl-1,2,3,6-tetrahydropyridin-1-ium iodide]
EC50 (M4 muscarinic receptor [1]): 4.68 µM
Kd (M4 muscarinic receptor [1]): 6.31 µM
Emax (M4 muscarinic receptor [1]): 28 ± 1%
τ (M4 muscarinic receptor [1]; [5]): 0.46 ± 0.05
RAi (M4 muscarinic receptor [1]; [6]): 0.0048 ± 0.0005
Δlog(τ/KA) (M4 muscarinic receptor [1]; [7]): 2.14 ± 0.19
Ki (M2 muscarinic receptor; Inhibition constants (Ki) as negative logarithms, M2, competition with 1 nM [3H]NMS): 0.692 µM
Ki (M2 muscarinic receptor; Inhibition constants Ki, at M2 receptors): 0.7 µM
Ki (M1 muscarinic receptor): 1.38 µM
Ki (M5 muscarinic receptor [2]; Inhibition constants (Ki) as negative logarithms, M5, competition with 1 nM [3H]NMS): 1.7 µM
Ki (M4 muscarinic receptor [3]; Inhibition constants (Ki) as negative logarithms, M4, competition with 1 nM [3H]NMS): 3.09 µM
RAi (M3 muscarinic receptor): 0.0050 ± 0.0006
Δlog(τ/KA) (M3 muscarinic receptor): 2.30 ± 0.45
E′MAX (M3 muscarinic receptor; [8]): 1.8 ± 0.1 fold over basal
τ (M3 muscarinic receptor; [8]): 0.03 ± 0.01
Kd (M3 muscarinic receptor; [8]): 3.98 µM
EC50 (M3 muscarinic receptor; [8]): 3.16 µM
Kd (M5 muscarinic receptor [4]): 12.6 µM
E′MAX (M5 muscarinic receptor [4]; [9]): 3.5 ± 0.2 fold over basal
τ (M5 muscarinic receptor [4]; [9]): 0.14 ± 0.01
RAi (M5 muscarinic receptor [4]; [10]): 0.0049 ± 0.0006
Δlog(τ/KA) (M5 muscarinic receptor [4]; [10]): 2.31 ± 0.50
EC50 (M5 muscarinic receptor [4]; pEC50, M5 (↑IPX), preferential response, Table 7): 9.77 µM

Emax (M4 muscarinic receptor [1]; M4 (↓cAMP), preferential response, Table 7, read-out: E′MAX): 30 ± 1%
τ (M4 muscarinic receptor [1]; [5]): 0.51 ± 0.05
Kd (M4 muscarinic receptor [1]; M4 (↓cAMP), preferential response, Table 7, operational model, read-out: pKA (converted)): 3.98 µM
EC50 (M4 muscarinic receptor [1]; M4 (↓cAMP), preferential response, Table 7, read-out: pEC50 (converted)): 2.88 µM
RAi (M4 muscarinic receptor [1]; [6]): 0.0087 ± 0.0009
Δlog(τ/KA) (M4 muscarinic receptor [1]; [7]): 1.90 ± 0.18
Ki (M2 muscarinic receptor; competition with 1 nM [3H]NMS, read-out: Inhibition constants (Ki) as negative logarithms, M2 (converted)): 2.29 µM
Ki (M2 muscarinic receptor; high-affinity fraction of binding to M2, read-out: high affinity binding): ~0.03 µM
Ki (M1 muscarinic receptor): 3.98 µM
Ki (M5 muscarinic receptor [2]; competition with 1 nM [3H]NMS, read-out: Inhibition constants (Ki) as negative logarithms, M5 (converted)): 3.39 µM
Ki (M4 muscarinic receptor [3]; competition with 1 nM [3H]NMS, read-out: Inhibition constants (Ki) as negative logarithms, M4 (converted)): 4.37 µM
binding that occurred with high affinity (M4 muscarinic receptor [3]; fraction of binding to M4): ~10%
Ki (M4 muscarinic receptor [3]; high-affinity fraction of binding to M4, read-out: high affinity binding): ~0.03 µM
E′MAX (M3 muscarinic receptor; [8]): 4.4 ± 0.4 fold over basal
τ (M3 muscarinic receptor; [8]): 0.14 ± 0.01
Kd (M3 muscarinic receptor; [8]): 5.01 µM
EC50 (M3 muscarinic receptor; [8]): 8.32 µM
RAi (M3 muscarinic receptor; M3 (↑IPX), preferential response, relative to carbachol, Tables 2, 3, 7): 0.0077 ± 0.0008
Δlog(τ/KA) (M3 muscarinic receptor; M3 (↑IPX), preferential response, to carbachol, Tables 2, 3, 7): 2.11 ± 0.12
E′MAX (M5 muscarinic receptor [4]; [9]): 1.47 ± 0.07 fold over basal
τ (M5 muscarinic receptor [4]; [9]): 0.02 ± 0.01
Kd (M5 muscarinic receptor [4]; M5 (↑IPX), preferential response, Table 7, operational model, read-out: pKA (converted)): 5.01 µM
EC50 (M5 muscarinic receptor [4]; M5 (↑IPX), preferential response, Table 7, read-out: pEC50 (converted)): 4.37 µM
RAi (M5 muscarinic receptor [4]; [10]): 0.0021 ± 0.0009
Δlog(τ/KA) (M5 muscarinic receptor [4]; [10]): 2.67 ± 0.41
SMILES: Cc1ccc(C[N+]2(C)CC=CCC2)s1.[I-] (stereo not drawn) [Compound 7B, 1-methyl-1-[(5-methylthiophen-2-yl)methyl]-1,2,3,6-tetrahydropyridin-1-ium iodide]

SMILES: C[N+](C)(C)CCOC(N)=O [carbachol, reference compound]
E′MAX (M4 muscarinic receptor [1]; M4 (↓cAMP), preferential response, Table 7): 55 ± 2 % inhibition
τ (M4 muscarinic receptor [1]; [5]): 1.41 ± 0.08
Δlog(τ/KA) (M4 muscarinic receptor [1]; [7]): 0
E′MAX (M4 muscarinic receptor [1]; M4Gi (↓cAMP), Table 8): 55 ± 2 % inhibition
τ (M4 muscarinic receptor [1]; M4Gi (↓cAMP), Table 8): 1.4 ± 0.1
Δlog(τ/KA) (M4 muscarinic receptor [1]; M4Gi (↓cAMP), Table 8, to carbachol): 0
